Calls of active or inactive are those of the source.

Test [1] can be described thus: HepG2 cell cytotoxicity, dose response, cytotoxicity control for non-replicating M. tuberculosis project (AID 489018). In kind it is functional. The note with it: Mycobacterium tuberculosis.
For the next test, the target named is Ion channel NompC (Danio rerio, UniProt Q7T1G6). The test can be described thus: Dose response cell-based high-throughput screening assay for agonists of the transient receptor potential channel N1 (TRPN1). [Related pubchem assays (depositor defined):AID1424, AID1448]. In kind it is functional.
In test [2] the test system is HEK293. The experiment in a line: cells. The note with it: Homo sapiens.
For test [3], the target named is T1, Aryl hydrocarbon receptor (Homo sapiens, UniProt P35869).
T1 sequence (P35869 whole entry): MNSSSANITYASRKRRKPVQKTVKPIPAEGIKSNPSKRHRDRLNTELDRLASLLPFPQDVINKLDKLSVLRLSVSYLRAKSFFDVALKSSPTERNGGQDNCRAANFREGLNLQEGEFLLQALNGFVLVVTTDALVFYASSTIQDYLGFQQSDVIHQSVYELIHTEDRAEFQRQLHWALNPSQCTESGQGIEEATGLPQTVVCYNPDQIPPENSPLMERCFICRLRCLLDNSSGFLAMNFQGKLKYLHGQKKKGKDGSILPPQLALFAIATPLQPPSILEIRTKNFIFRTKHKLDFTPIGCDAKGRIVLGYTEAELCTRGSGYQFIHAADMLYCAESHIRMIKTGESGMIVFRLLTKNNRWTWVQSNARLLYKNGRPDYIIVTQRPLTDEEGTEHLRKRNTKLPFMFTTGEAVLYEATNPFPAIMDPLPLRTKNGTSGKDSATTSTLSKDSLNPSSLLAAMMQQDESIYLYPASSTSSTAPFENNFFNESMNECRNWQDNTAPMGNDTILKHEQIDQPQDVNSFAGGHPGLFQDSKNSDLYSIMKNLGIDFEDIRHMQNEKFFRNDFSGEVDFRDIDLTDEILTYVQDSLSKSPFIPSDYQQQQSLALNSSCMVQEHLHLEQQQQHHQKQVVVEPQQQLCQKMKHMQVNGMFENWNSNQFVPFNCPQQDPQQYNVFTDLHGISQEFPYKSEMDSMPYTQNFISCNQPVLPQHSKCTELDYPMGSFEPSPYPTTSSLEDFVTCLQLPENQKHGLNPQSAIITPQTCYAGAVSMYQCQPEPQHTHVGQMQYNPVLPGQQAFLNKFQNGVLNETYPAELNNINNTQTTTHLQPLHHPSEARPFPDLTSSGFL
The test can be described thus: Luminescence-based cell-based high throughput dose response assay for activators of the Aryl Hydrocarbon Receptor (AHR). [Related pubchem assays: 2796 (Primary screen (AHR activators in singlicate)), 2845 (Confirmation screen (AHR activators in triplicate)), 434939 (Counterscreen (PXR activators in triplicate)), 2804 (Summary (AHR activators))]. In kind it is ADME. In general terms: The purpose of a counterscreen is to sort out artefacts and off-target activity.

The nature of test [4]: microbe, parasite or virus in culture. In kind it is functional. The note with it: Mycobacterium tuberculosis.
The nature of test [5]: HepG2 cell cytotoxicity, dose response, cytotoxicity control for Shn3 inhibitor project, CellTiter-Glo, cherry-picked (AID 624134). In kind it is functional, cell-based.
Test [6] concerns HEK293. The experiment in a line: cells. The note with it: Homo sapiens. This is another data set of the same source.
Test [7] in a line: THP-1 cell cytotoxicity, dose response, cytotoxicity control for non-replicating M. tuberculosis project (AID 489025). In kind it is functional.
Another test is described as follows: cells. In kind it is functional.
The next test concerns INS1. The test can be described thus: beta cell apoptosis inhibitors, cytokine rescue, dose response, luminescence, retest (AID 449756).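 Also: cell death triggered by IL-1 beta plus TNF-alpha plus IFN-gamma mixture; protective hits raise ATP signal compared with cytokine alone wells.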 In kind it is functional, cell-based. The note with it: Rattus norvegicus.
Test [8] can be described thus: control 3'UTR Renilla luciferase suppression, dose response, counter-screen for Shn3 inhibitor project, cell-based, Clone20-Shn3RL, cherry-picked (AID 624133). In kind it is functional.
Test [9] in a line: Vero E6 cell cytotoxicity, dose response, cytotoxicity control for non-replicating M. tuberculosis project, secondary assay (AID 492998). In kind it is functional, VeroE6. The note with it: Vero C1008.
A further test relates to HeLa. The test can be described thus: Cytotoxicity counterscreen assay for transcriptional activators of heat shock protein 70 (Hsp70). [Related pubchem assays: 1203, 1252 ]. In kind it is functional. The note with it: Homo sapiens.
In another test the target is T2, Mucolipin-3 (Homo sapiens, UniProt Q8TDD5).
T2 sequence (Q8TDD5 whole entry): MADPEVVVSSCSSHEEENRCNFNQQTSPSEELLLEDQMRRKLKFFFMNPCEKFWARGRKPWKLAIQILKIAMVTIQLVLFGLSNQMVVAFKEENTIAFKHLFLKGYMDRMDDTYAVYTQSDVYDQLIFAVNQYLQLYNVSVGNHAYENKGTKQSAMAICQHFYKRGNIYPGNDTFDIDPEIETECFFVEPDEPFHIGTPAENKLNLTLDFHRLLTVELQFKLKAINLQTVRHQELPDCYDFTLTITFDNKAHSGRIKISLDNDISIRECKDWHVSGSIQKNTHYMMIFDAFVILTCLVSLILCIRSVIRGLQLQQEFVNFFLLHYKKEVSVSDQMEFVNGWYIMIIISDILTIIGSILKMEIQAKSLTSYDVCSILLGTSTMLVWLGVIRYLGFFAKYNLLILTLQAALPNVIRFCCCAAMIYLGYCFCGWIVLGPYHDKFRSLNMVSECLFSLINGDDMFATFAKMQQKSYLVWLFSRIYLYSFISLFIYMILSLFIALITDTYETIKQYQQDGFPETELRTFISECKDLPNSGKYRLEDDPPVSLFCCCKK
The test can be described thus: Fluorescence counterscreen assay for […] agonists: dose response cell-based high-throughput screening assay to identify agonists of the transient receptor potential channel ML3 (TRPML3). [Related pubchem assays: 1424, 1448 ]. In kind it is functional.

For test [10], the target named is Beta-2 adrenergic receptor (Homo sapiens, UniProt P07550). The test can be described thus: beta2AR agonists driving receptor internalization, dose response, cell-based, FAP fluorogen, flow cytometry, cherry pick 1 (AID 588763). In kind it is functional.
For another test, the target named is Beta-galactosidase (Escherichia coli, UniProt Q8VNN2). The test can be described thus: PubChem AID 485352. In kind it is functional.
The target of test [11] is T3, Type-1 angiotensin II receptor (Homo sapiens, UniProt P30556).
T3 sequence (P30556 whole entry): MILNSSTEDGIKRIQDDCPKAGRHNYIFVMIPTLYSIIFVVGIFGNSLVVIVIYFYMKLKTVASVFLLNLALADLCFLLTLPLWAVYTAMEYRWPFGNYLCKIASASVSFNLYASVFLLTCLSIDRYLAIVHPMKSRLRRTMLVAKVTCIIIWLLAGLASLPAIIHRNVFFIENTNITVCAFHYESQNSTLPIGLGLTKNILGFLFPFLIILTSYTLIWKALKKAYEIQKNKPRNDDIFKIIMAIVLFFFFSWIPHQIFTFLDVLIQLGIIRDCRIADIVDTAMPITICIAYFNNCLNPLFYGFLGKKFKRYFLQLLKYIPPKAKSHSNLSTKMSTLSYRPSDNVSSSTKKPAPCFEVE
The test can be described thus: AT1 receptor antagonists, dose response, selectivity assay for APJ receptor antagonist project, cell-based, uHTS hits (AID 463214).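 Also: antagonist potency against angiotensin II stimulated AT1 response.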 In kind it is functional.

Another test deals with Exodeoxyribonuclease V (Escherichia coli (strain K12), UniProt P04993+P07648+P08394). The experiment in a line: E. coli RecBCD inhibitors, dose response, counter-screen for AddAB inhibitor project, absorbance, V66 E. coli, mutant T4 phage (AID 492957). In kind it is functional, cell-based, Escherichia coli str. K-12 substr. MG1655.
Test [12] can be described thus: Counterscreen for AddAB inhibitors: absorbance-based bacterial cell-based high throughput dose response assay for inhibitors of bacterial viability. [Related pubchem assays (depositor defined):AID435030, AID449728, AID449731, AID488942, AID488955, AID488956]. In kind it is functional.
The next test addresses T4, Hexokinase-1 (Homo sapiens, UniProt P19367).
T4 sequence (P19367 whole entry): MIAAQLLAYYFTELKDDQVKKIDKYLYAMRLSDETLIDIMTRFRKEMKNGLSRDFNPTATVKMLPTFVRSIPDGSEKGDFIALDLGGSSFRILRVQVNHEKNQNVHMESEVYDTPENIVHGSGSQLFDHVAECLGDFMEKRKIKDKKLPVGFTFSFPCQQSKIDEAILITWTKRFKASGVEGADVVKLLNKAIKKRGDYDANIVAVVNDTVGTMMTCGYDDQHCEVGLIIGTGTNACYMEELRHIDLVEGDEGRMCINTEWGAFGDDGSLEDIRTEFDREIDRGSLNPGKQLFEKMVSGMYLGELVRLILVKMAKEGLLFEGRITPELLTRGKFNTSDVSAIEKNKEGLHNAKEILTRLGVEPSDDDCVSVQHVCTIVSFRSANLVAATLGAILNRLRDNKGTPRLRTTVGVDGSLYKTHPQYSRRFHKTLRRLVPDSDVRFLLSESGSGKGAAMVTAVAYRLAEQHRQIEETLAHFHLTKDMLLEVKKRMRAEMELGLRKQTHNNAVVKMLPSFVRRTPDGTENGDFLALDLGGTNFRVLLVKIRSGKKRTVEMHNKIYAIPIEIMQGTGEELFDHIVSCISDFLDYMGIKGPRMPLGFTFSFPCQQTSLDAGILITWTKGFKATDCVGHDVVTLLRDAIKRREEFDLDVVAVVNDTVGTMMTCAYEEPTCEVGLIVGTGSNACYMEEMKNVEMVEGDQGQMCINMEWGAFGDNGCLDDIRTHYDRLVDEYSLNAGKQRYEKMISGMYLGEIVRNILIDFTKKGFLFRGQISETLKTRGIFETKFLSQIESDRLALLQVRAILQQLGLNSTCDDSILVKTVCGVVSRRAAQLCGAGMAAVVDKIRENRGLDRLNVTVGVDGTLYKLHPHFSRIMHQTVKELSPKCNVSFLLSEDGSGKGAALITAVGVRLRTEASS
The experiment in a line: SAR analysis of small molecule inhibitors of hexokinase domain containing I (HKDC1) in the hexokinase 1 selectivity assay. [Related pubchem assays (depositor defined):AID493160, AID493190]. In kind it is functional.

Another test concerns the target T5, Hexokinase HKDC1 (Homo sapiens, UniProt Q2TB90).
T5 sequence (Q2TB90 whole entry): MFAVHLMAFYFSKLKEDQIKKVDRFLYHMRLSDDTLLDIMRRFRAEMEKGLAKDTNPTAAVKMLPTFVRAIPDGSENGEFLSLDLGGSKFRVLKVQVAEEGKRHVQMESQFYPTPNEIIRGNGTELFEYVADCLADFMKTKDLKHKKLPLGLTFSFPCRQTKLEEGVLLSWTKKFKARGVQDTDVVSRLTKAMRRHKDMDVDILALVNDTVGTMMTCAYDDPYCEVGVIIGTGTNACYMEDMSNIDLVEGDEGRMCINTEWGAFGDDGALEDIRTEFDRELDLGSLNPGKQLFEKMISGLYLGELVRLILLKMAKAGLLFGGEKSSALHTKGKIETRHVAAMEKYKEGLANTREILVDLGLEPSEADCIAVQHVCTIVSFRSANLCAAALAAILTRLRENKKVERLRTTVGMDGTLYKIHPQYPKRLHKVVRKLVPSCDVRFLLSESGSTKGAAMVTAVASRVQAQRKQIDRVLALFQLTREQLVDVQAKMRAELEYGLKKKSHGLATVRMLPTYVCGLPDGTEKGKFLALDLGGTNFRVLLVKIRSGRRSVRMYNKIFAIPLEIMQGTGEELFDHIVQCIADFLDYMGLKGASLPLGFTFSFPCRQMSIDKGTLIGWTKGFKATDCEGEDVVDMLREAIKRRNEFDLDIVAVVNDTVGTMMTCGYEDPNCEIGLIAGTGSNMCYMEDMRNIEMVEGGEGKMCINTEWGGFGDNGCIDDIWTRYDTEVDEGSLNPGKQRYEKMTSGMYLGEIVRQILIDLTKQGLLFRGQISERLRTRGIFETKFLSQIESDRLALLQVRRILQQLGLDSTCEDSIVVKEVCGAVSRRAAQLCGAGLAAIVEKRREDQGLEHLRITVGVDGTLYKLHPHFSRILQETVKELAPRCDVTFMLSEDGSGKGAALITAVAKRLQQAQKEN
The experiment in a line: SAR analysis of small molecule inhibitors of hexokinase domain containing I (HKDC1). [Related pubchem assays (depositor defined):AID493160, AID493190]. In kind it is functional.

Beta-2 adrenergic receptor, sequence (P07550 whole entry): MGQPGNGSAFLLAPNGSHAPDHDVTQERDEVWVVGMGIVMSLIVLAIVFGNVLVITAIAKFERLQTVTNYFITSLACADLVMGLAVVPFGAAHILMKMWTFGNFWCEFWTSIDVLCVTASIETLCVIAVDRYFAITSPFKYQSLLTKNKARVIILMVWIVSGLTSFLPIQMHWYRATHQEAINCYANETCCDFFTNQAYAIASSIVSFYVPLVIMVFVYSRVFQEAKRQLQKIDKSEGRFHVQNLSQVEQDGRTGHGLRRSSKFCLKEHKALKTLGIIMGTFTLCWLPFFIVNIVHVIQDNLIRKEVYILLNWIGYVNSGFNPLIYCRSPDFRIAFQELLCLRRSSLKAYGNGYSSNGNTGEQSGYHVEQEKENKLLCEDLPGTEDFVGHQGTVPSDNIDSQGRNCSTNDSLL
Beta-galactosidase, sequence (Q8VNN2 whole entry): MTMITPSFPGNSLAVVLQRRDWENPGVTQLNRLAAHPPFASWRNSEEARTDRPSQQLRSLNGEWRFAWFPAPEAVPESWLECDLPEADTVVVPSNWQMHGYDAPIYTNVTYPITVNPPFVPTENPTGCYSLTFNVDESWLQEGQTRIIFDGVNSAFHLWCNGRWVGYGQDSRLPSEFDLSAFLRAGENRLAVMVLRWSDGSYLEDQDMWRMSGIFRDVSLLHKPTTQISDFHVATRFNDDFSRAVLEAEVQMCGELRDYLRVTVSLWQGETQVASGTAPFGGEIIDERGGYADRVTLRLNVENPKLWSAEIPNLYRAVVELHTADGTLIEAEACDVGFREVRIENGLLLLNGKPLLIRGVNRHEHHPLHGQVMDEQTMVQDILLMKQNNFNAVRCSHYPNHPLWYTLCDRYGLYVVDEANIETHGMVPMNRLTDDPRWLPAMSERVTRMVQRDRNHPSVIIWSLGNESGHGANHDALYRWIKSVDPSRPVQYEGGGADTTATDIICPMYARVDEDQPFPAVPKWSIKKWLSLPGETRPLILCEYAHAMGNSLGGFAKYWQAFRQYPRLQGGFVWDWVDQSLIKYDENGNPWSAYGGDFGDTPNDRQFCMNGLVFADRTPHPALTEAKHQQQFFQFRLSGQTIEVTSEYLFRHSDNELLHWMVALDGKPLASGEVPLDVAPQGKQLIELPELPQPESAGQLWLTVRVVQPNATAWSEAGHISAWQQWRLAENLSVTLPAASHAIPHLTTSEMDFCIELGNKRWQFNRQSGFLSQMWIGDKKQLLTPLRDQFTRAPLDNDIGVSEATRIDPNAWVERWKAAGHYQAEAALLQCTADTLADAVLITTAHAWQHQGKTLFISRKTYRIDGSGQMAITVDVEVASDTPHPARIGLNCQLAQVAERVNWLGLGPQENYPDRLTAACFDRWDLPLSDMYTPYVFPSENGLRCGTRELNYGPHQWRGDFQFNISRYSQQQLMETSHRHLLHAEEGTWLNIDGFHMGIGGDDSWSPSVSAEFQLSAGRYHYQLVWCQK
Ion channel NompC, sequence (Q7T1G6 whole entry): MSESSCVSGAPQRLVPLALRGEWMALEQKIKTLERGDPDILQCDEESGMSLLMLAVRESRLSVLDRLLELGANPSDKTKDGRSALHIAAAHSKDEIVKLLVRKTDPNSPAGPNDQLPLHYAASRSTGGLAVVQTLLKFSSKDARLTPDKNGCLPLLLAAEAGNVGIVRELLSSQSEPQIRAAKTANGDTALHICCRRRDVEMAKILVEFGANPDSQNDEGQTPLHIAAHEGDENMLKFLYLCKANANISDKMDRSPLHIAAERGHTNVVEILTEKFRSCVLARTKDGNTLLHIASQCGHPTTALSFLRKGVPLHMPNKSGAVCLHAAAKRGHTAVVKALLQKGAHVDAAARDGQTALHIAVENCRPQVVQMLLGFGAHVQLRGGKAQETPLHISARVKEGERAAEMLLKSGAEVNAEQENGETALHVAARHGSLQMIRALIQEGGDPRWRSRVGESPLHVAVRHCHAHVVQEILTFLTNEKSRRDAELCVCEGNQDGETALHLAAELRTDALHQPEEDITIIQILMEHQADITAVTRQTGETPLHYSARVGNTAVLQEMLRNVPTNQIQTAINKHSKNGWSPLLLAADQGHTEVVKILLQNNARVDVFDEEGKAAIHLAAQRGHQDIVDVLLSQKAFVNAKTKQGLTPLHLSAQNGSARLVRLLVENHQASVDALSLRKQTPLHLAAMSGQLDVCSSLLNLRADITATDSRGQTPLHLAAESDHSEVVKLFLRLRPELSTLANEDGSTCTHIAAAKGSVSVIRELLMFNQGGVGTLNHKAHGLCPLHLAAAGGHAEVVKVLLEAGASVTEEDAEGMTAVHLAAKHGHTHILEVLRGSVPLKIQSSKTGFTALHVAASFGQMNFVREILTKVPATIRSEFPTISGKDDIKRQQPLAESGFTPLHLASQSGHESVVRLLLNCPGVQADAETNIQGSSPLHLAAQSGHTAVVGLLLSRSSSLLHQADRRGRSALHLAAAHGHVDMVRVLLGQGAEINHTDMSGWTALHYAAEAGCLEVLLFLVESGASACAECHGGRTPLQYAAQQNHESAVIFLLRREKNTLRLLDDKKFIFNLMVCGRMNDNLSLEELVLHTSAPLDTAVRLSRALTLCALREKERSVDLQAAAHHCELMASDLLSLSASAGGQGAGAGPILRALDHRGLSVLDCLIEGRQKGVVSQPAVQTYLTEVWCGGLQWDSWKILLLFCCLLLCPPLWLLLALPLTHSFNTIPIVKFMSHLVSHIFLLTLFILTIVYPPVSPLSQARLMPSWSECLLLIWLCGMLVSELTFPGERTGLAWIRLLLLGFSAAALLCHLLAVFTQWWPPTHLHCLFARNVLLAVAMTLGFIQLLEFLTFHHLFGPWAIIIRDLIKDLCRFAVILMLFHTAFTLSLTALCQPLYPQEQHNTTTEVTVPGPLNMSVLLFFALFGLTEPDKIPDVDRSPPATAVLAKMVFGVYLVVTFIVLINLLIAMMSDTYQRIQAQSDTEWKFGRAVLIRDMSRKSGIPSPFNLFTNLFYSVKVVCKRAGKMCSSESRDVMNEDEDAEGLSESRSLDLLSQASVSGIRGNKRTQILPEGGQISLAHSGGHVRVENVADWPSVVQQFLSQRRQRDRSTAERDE

With `CC(=O)Nc1sc2c(c1-c1nc3ccccc3s1)CCN(C(C)C)C2`, the CC50 in test [1] was 7.58 µM (active); in test [4], 2.94 µM (active); in test [7], 3.78 µM (active); in test [9], 3.05 µM (active); in the test with HeLa, 9.92 µM (active). Further, the EC50 on Ion channel NompC was 25.1 µM (inactive); with HEK293 [2], > 59.6 µM (inactive); in [3], > 1.13 µM (active); with HEK293 [6] it was > 2.21 µM (active); at Mucolipin-3, > 29.9 µM (not active). The AC50 in [5] is 4.53 µM (active); in the test with INS1, 1.77 µM (active); in [8], 20.1 µM (active). For the same compound, the IC50 in the test “cells” was 5.98 µM (active).

In the case of `CCSc1nc2ccccc2n1C(=O)c1ccc(S(=O)(=O)N2CCCCCC2)cc1`, the EC50 in test [10] is 12.5 µM (inactive).

Turning to `O=C(Cc1ccccc1)NCC(=O)OCC(=O)c1cccc([N+](=O)[O-])c1`, the EC50 on Beta-galactosidase was > 40 µM (inactive). In test [11], the IC50 is given as 23.2 µM (not active).

`CCOC(=O)c1cn(C2CC2)c2c(F)c(NCCCN(C)C)c(F)cc2c1=O`: the IC50 on Exodeoxyribonuclease V was > 119 µM (inactive); in test [12], 75.9 µM (inactive). Moreover, the EC50 in [10] was 0.353 µM (active).

Regarding `Cc1ccoc1C(=O)Nc1cccc(C(=O)Nc2cccc(C(F)(F)F)c2)c1`, the IC50 on Hexokinase-1 and at Hexokinase HKDC1 was > 80 µM (inactive) throughout.

Take `COc1ccc(NC(=O)c2ccc(NC(=O)c3scnc3C)cc2)cc1`: the IC50 on Hexokinase-1 and on Hexokinase HKDC1 was > 80 µM (inactive) each time.

Usually EC50 stands for the concentration needed to bring the measured effect to its halfway point. Usually AC50 stands for the midpoint of the concentration-response curve, whichever way the signal moves. The IC50 is the point on the concentration scale where inhibition reaches its midpoint.

These data come from ChEMBL document CHEMBL1201862, “PubChem BioAssay data set” (2004).
